Data published in ChEMBL document CHEMBL1201862, “PubChem BioAssay data set” (2004).
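Cells were grown in 96-well plates and exposed to each compound for 48 hours at five concentrations; endpoints were interpolated linearly between bracketing concentrations, or set to the highest concentration if not reached. GI50 marks 50% less growth.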 Active and inactive are the calls of the source. Cut-off read from the data, not from the text of the source: active = GI50 up to about 1.1 µM and inactive = higher. Residues, ends and D or L forms follow the SMILES beside them. Groups on a side chain read outwards from the residue. *: point of attachment. Cbz = O=C(OCc1ccccc1)*; Boc = CC(C)(C)OC(=O)*

Legend:
Test in all cases: growth of human tumour cells (NCI), 48 h
HOP-92 = tested on: HOP-92
SF-268 = tested on: SF-268
OVCAR-3 = tested on: OVCAR-3
UACC-257 = tested on: UACC-257
ACHN = tested on: ACHN
HCC 2998 = tested on: HCC 2998
KM12 = tested on: KM12
UO-31 = tested on: UO-31
MDA-MB-231 = tested on: MDA-MB-231
OVCAR-5 = tested on: OVCAR-5
MCF7 = tested on: MCF7
CCRF-CEM = tested on: CCRF-CEM
SNB-19 = tested on: SNB-19
NCI-H460 = tested on: NCI-H460
NCI-H226 = tested on: NCI-H226
HL-60 = tested on: HL-60
SK-MEL-28 = tested on: SK-MEL-28
A498 = tested on: A498
SNB-75 = tested on: SNB-75
LOX IMVI = tested on: LOX IMVI

Measured: GI50

NC(=O)N/N=C1\CCCCc2ccccc21
inactive: HOP-92 > 10 µM | SF-268 > 10 µM | OVCAR-3 > 10 µM | UACC-257 > 10 µM | ACHN > 10 µM | HCC 2998 > 10 µM | KM12 > 10 µM | UO-31 > 10 µM | MDA-MB-231 > 10 µM | OVCAR-5 > 10 µM | MCF7 > 10 µM | CCRF-CEM > 10 µM | SNB-19 > 10 µM | NCI-H460 > 10 µM | NCI-H226 > 10 µM

COc1nc(O)nc2c1C(c1ccc([N+](=O)[O-])cc1)c1c(OC)nc(O)nc1O2
inactive: SF-268 > 100 µM | OVCAR-3 > 100 µM | HL-60 > 100 µM | UACC-257 > 100 µM | SK-MEL-28 > 100 µM | ACHN > 100 µM | A498 > 100 µM | KM12 > 100 µM | UO-31 > 100 µM | MDA-MB-231 > 100 µM | OVCAR-5 > 100 µM | CCRF-CEM > 100 µM | SNB-19 > 100 µM | NCI-H460 > 100 µM | NCI-H226 > 100 µM

OC(c1cc2ccc(C(F)(F)F)cc2c2cc(C(F)(F)F)ccc12)C1CCCCN1 (stereo not given)
inactive: HOP-92 1.74 µM | SF-268 1.64 µM | OVCAR-3 1.63 µM | HL-60 31.4 µM | UACC-257 1.56 µM | SK-MEL-28 1.91 µM | ACHN 1.33 µM | SNB-75 1.29 µM | HCC 2998 1.3 µM | KM12 2.07 µM | LOX IMVI 1.26 µM | UO-31 1.41 µM | MDA-MB-231 1.73 µM | OVCAR-5 1.77 µM | MCF7 1.81 µM | CCRF-CEM 1.78 µM | SNB-19 1.84 µM | NCI-H460 1.95 µM

CC(C)(C)OC(=O)NC(CCCCNC(=O)CNC(=O)OCc1ccccc1)C(=O)NC(CCCCNC(=O)CNC(=O)OCc1ccccc1)C(=O)NC(CCCCNC(=O)CNC(=O)OCc1ccccc1)C(=O)NC(CCCCNC(=O)CNC(=O)OCc1ccccc1)C(=O)O (stereo not given) (Boc-K([Gly-Cbz])K([Gly-Cbz])K([Gly-Cbz])K([Gly-Cbz])-OH; configuration not given here)
inactive: SF-268 > 100 µM | OVCAR-3 > 100 µM | HL-60 > 100 µM | UACC-257 > 100 µM | SK-MEL-28 > 100 µM | ACHN > 100 µM | SNB-75 > 100 µM | HCC 2998 > 100 µM | LOX IMVI > 100 µM | UO-31 > 100 µM | MDA-MB-231 > 100 µM | OVCAR-5 > 100 µM | MCF7 > 100 µM | CCRF-CEM > 100 µM | SNB-19 > 100 µM | NCI-H460 > 100 µM | NCI-H226 > 100 µM
